Assay results: ChEMBL document CHEMBL4813920, “Metronidazole-conjugates: A comprehensive review of recent developments towards synthesis and medicinal perspective” (Eur J Med Chem, 2021)
Converted amounts (≈) assume the structure as drawn.

Legend:
Escherichia coli [1] = test: Potency index, ratio norfloxacin MIC to test compound MIC for antibacterial activity against Escherichia coli; assay type: functional
Acinetobacter baumannii [2] = test: Potency index, ratio norfloxacin MIC to test compound MIC for antibacterial activity against Acinetobacter baumannii; assay type: functional
Pseudomonas aeruginosa [3] = test: Antibacterial activity against Pseudomonas aeruginosa ATCC 27853 by microbroth dilution method; assay type: functional
Candida albicans = test: Antimicrobial activity against Candida albicans ATCC 90023; assay type: functional
Enterococcus faecalis [4] = test: Antibacterial activity against Enterococcus faecalis by microbroth dilution method; assay type: functional
Enterococcus faecalis [5] = test: Potency index, ratio norfloxacin MIC to test compound MIC for antibacterial activity against Enterococcus faecalis; assay type: functional
Pseudomonas aeruginosa [6] = test: Potency index, ratio norfloxacin MIC to test compound MIC for antibacterial activity against Pseudomonas aeruginosa ATCC 27853; assay type: functional
Acinetobacter baumannii [7] = test: Antibacterial activity against Acinetobacter baumannii by microbroth dilution method; assay type: functional
Escherichia coli [8] = test: Antibacterial activity against Escherichia coli by microbroth dilution method; assay type: functional
Candida parapsilosis = test: Antimicrobial activity against Candida parapsilosis ATCC 22019; assay type: functional; conditions: Lodderomyces parapsilosis
Trichomonas vaginalis [9] = test: Anti-trichomonas activity against Trichomonas vaginalis CDC 085 assessed as release of nitric oxide at 0.27 uM preincubated for 3 hrs followed by DAF-FM DA probe addition and measured after 30 mins by confocal microscopy; assay type: functional; conditions: time 3.5 hrs
Trichomonas vaginalis [10] = test: Anti-trichomonas activity against Trichomonas vaginalis JT assessed as release of nitric oxide at 0.027 uM preincubated for 3 hrs followed by DAF-FM DA probe addition and measured after 30 mins by confocal microscopy; assay type: functional; conditions: time 3.5 hrs
Trichomonas vaginalis [11] = test: Anti-trichomonas activity against Trichomonas vaginalis JT incubated for 48 hrs by hemocytometer based eosin exclusion assay; assay type: functional, organism-based
Trichomonas vaginalis [12] = test: Anti-trichomonas activity against Trichomonas vaginalis CDC 085 incubated for 48 hrs by hemocytometer based eosin exclusion assay; assay type: functional, organism-based; conditions: CDC 085, 48 h
Tritrichomonas foetus [13] = test: Anti-trichomonas activity against Trichomonas foetus C1 incubated for 24 hrs by hemocytometer counting method; assay type: functional, organism-based; conditions: C1, 24 h
Tritrichomonas foetus [14] = test: Anti-trichomonas activity against Trichomonas foetus D1 incubated for 24 hrs by hemocytometer counting method; assay type: functional, organism-based; conditions: D1, 24 h
Trichomonas vaginalis [15] = test: Anti-trichomonas activity against Trichomonas vaginalis G3 incubated for 24 hrs by hemocytometer counting method; assay type: functional, organism-based; conditions: G3, 24 h
[16] = Selectivity index, ratio of CC50 for African green monkey Vero cells to IC50 for antigiardial activity against Giardia intestinalis MSS:0696:1; assay type: toxicity; conditions: read-out: Ratio CC50/IC50
Staphylococcus aureus = test: Antibacterial activity against Staphylococcus aureus ATCC 6538P incubated for 24 hrs by broth microdilution method; assay type: functional
Entamoeba histolytica = test: Antiamoebic activity against Entamoeba histolytica HK9 ATCC 30015 incubated for 72 hrs by trypan blue staining based assay; assay type: functional, organism-based; conditions: ATCC 30015, 72 h
Leishmania mexicana = test: Antileishmanial activity against promastigote form of Leishmania mexicana MHOM/BZ/82/Bel21 measured for 7 days by cell counting method; assay type: functional; conditions: MHOM/BZ/82/Bel21, 168 h, time 7 day
Leishmania braziliensis = test: Antileishmanial activity against promastigote form of Leishmania braziliensis MHOM/BR/75/M2903 measured for 7 days by cell counting method; assay type: functional; conditions: MHOM/BR/75/M2903, 168 h, time 7 day
Trichomonas vaginalis [17] = test: Anti-trichomonas activity against Trichomonas vaginalis JT assessed as release of superoxide radical at 0.229 uM preincubated for 3 hrs followed by Dihydroethidium probe addition and measured after 30 mins by confocal microscopy; assay type: functional; conditions: time 3.5 hrs
Trichomonas vaginalis [18] = test: Anti-trichomonas activity against Trichomonas vaginalis GT3 incubated for 48 hrs; assay type: functional, organism-based; conditions: GT3, 48 h
Clostridium sporogenes = test: Antimicrobial activity against Clostridium sporogenes ATCC 19404 incubated for 24 hrs by broth microdilution method; assay type: functional
[19] = Selectivity index, ratio of CC50 for African green monkey Vero cells to IC50 for antigiardial activity against Trichomonas vaginalis GT3; assay type: toxicity; conditions: read-out: Ratio CC50/IC50
Giardia intestinalis = test: Antigiardial activity against Giardia intestinalis WB ATCC 30957 incubated for 72 hrs by trypan blue staining based assay; assay type: functional, organism-based; conditions: Giardia duodenalis, WB ATCC 30957, 72 h
Trichomonas vaginalis [20] = test: Anti-trichomonas activity against Trichomonas vaginalis JT assessed as release of H2O2 at 0.229 uM preincubated for 3 hrs followed by DCFH-DA probe addition and measured after 30 mins by confocal microscopy; assay type: functional; conditions: time 3.5 hrs
Escherichia coli [21] = test: Antibacterial activity against Escherichia coli ATCC 8739 incubated for 24 hrs by broth microdilution method; assay type: functional
Clostridium perfringens = test: Antibacterial activity against Clostridium perfringens ATCC 13124 incubated for 48 hrs under anaerobic condition by MTT assay; assay type: functional

Cc1ncc([N+](=O)[O-])n1CC(O)CN1CCN(S(=O)(=O)c2ccc(N)cc2)CC1 (configuration not stated) gave a Ratio (Escherichia coli [1]) of 84, a Ratio (Acinetobacter baumannii [2]) of 11 and an MIC (Pseudomonas aeruginosa [3]) of 38 µM (≈ 16.1 µg/mL). It also gave an MIC (Candida albicans) of 75 µM (≈ 31.8 µg/mL), an MIC (Enterococcus faecalis [4]) of 75 µM (≈ 31.8 µg/mL) and a Ratio (Enterococcus faecalis [5]) of 11. For the same compound, the Ratio (Pseudomonas aeruginosa [6]) was 11, the MIC (Acinetobacter baumannii [7]) was 75 µM (≈ 31.8 µg/mL) and the MIC (Escherichia coli [8]) was 19 µM (≈ 8.07 µg/mL). For the same compound, the MIC (Candida parapsilosis) was 75 µM (≈ 31.8 µg/mL).

Compound Cc1ncc([N+](=O)[O-])n1CCCl has an Activity (Trichomonas vaginalis [9]) of 9000 a.u, an Activity (Trichomonas vaginalis [10]) of 9000 a.u and an IC50 (Trichomonas vaginalis [11]) of 0.006 µM. For the same compound, the IC50 (Trichomonas vaginalis [12]) was 0.24 µM.

Cc1ncc([N+](=O)[O-])n1CCn1cc(CN2C(=O)/C(=N\NC(N)=S)c3ccccc32)nn1 gave an IC50 (Tritrichomonas foetus [13]) of 0.6 µM, an IC50 (Tritrichomonas foetus [14]) of 0.6 µM and an IC50 (Trichomonas vaginalis [15]) of 2.6 µM.

For Cc1ncc([N+](=O)[O-])n1CCO [METRONIDAZOLE], the selectivity ratio [16] was > 22, the MIC (Staphylococcus aureus) was 2050 µM (≈ 351 µg/mL) and the IC50 (Entamoeba histolytica) was 5.2 µM. For the same compound, the LC50 (Leishmania mexicana) was > 1000 µM, the LC50 (Leishmania braziliensis) was > 1000 µM and the Activity (Trichomonas vaginalis [17]) was 350000 a.u. For the same compound, the IC50 (Trichomonas vaginalis [18]) was 0.93 µM, the MIC (Clostridium sporogenes) was 42.9 µM (≈ 7.34 µg/mL) and the selectivity ratio [19] was > 107. It also gave an IC50 (Giardia intestinalis) of 5.7 µM, an IC50 (Trichomonas vaginalis [11]) of 0.068 µM and an Activity (Trichomonas vaginalis [20]) of 1800000 a.u. The MIC (Escherichia coli [21]) was 5480 µM (≈ 938 µg/mL), the MIC (Clostridium perfringens) was 0.0058 µM (≈ 0.000993 µg/mL) and the IC50 (Trichomonas vaginalis [12]) was 0.49 µM.
